Patent US20190177440A1, “COMPOUND OR SALT THEREOF, ANTI-INFLAMMATORY AGENT, ANTI-CANCER AGENT AGAINST LUNG CANCER, METHOD OF PRODUCING COMPOUND OR SALTS THEREOF, METHOD OF TREATING INFLAMMATORY DISEASES AND METHOD OF TREATING LUNG CANCER” (TFK CO., LTD., priority 2016, published 2019)

Experiments:
TNF-α = TNF-α production in RAW264.7 mouse macrophage cells (Example 6); type: cell-based; settings: final 0.01, 0.1 and 1 ng/mL, no LPSp, FIG. 6
Experimental: In the same manner as “(1) Preparation of test solution” in Example 3, a solution having a concentration of the purified product of 20,000 ng/mL was prepared, and the solution was serially diluted with a culture solution having the following composition, thereby obtaining a total of three test solutions having a concentration of 2 ng/mL, 0.2 ng/mL, and 0.02 ng/mL. Since the three test solutions are diluted twice when added to the cells, the final concentrations of the purified products are 1 ng/mL, 0.1 ng/mL, and 0.01 ng/mL, respectively.
The culture medium was added to mouse macrophage cells (RAW264.7, ATCC) to prepare solutions at concentrations of 4×10^5 cells/mL. The solutions were seeded in 96-well flat-bottomed plates in 100 μL portions, i.e., 4×10^4 cells/100 μL/well. After seeding, the cells were incubated at 37° C. in 5% CO2 for 2 hours until they adhered to the bottoms of the wells and extended. Next, 100 μL of the test solution was added to each well. After adding the test solution, the cells were incubated at 37° C. in a 5% CO2 for 24 hours. After the incubation, the culture supernatant of the wells was removed, 150 μl of the above-mentioned culture solution was newly added (hereinafter, this step is referred to as a “culture solution adding step”), and the wells were incubated at 37° C. in a 5% CO2 for 24 hours.
After incubation, 50 μl of culture supernatant from each well was collected, transferred to each well of new 96-well flat-bottom plates, and absorbance was measured using mouse TNF a assay kit (manufactured by Biolegend) and converted to TNF-α concentrations.

NF-κB = assay: Nuclear NF-κB level in RAW264.7 mouse macrophage cells (Example 4); type: cell-based; settings: final 1 and 100 ng/mL, 24 hours pre-treatment, no LPSp, FIG. 4
Experimental: In the same manner as “(1) Preparation of test solution” in Example 3, a solution having a concentration of the purified product of 20,000 ng/mL was prepared, and the solution was serially diluted with a culture solution having the following composition, thereby obtaining two test solutions having 100 ng/mL and 10,000 ng/mL. Since the two test solutions are diluted 100-fold when added to the cells, the final concentrations of the purified product are 1 ng/mL and 100 ng/mL, respectively.
The culture medium was added to mouse macrophage cells (RAW264.7, ATCC) to prepare solutions at concentrations of 1.067×10^6 cells/mL. The solutions were seeded in 6 well plates in 3 mL portions, i.e., 3.2×10^6 cells/3 mL/well. After seeding, the test solution was incubated at 37° C. in a 5% CO2 for 2 hours, and 30 μL of the test solution was added to each well. After adding the test solution, the test solution was incubated at 37° C. in a 5% CO2 for 24 hours. The culture supernatant of each of the wells was then collected in a 15 mL tube. Then, 1 mL of the fresh culture solution was added to each of the wells, and after spreading over the entire well, the operation of collecting the culture solution into the 15 mL tube was repeated twice. Thereafter, the culture solution collected in the 15 mL tube was centrifuged at 1,000 rpm for 3 minutes, the supernatant was removed, and 3 mL of a new culture solution at 37° C. was added to suspend the culture solution, and centrifuged again under the same conditions. After centrifugation, the supernatant was removed, and 2 mL of the above-mentioned culture solution at 37° C. was added to the precipitate and suspended. Then, 2 mL of the suspension was added to each well to which 1 mL of a new culture medium had been added in advance. Thereafter, 30 μL of a new culture medium was added (hereinafter, this step is referred to as a “culture medium addition step”). After incubation at 37° C. in a 5% CO2 for 30 minutes, the culture supernatants of the wells were collected in 15-mL tubes, centrifuged at 1,000 rpm for 3 minutes, and the supernatants were removed by an aspirator. In addition, to the wells of the 6-well plate from which the culture supernatant was removed, 3 mL of cooled PBS (Phosphate buffered saline)/Phosphatase Inhibitors solution was added, the cells were removed by pipetting, and the cell suspension was added to the 15-mL tubes. The 15 mL tube was centrifuged at 1,000 rpm for 3 minutes, the supernatant was removed by an aspirator, and 0.5 mL of the cooled PB S/Phosphatase Inhibitors solution was added to the 15 mL tube and suspended to prepare a cell suspension. […]
The amount of NF-κB in the nucleoprotein was confirmed by measuring the absorbance using the Trans AM NF KB p65 kit (manufactured by Active Motif).

PPARγ gene = PPARγ gene expression in THP-1 cells by CAGE method (Example 8-2); type: cell-based, human; settings: 3 hours
Experimental: The same culture medium as in Example 8-1(2) was added to the THP-1 cells to prepare solutions in which the concentrations of the cells were 5×10^5 cells/mL. The expression level of the PPARγ gene in this solution was measured by the CAGE method and found to be 3.97 TPM (Tags Per Million). After the measurement, the cell solution was divided into the following four groups. That is, there are four groups: a group in which a solution of the purified product is added to the cell solution so as to have a final concentration of 1 μg/mL (Example 8-2A), a group in which a solution of the purified product is added to the cell solution so as to have a final concentration of 10 μg/mL (Example 8-2B), a group in which nothing is added to the cell solution (Comparative Example 8-2A), and a group in which a LPSp solution is added to the cell solution so as to have a final concentration of 100 ng/mL (Comparative Example 8-2B). After culturing the four groups for 3 hours, the expression level of the PPARγ gene was measured by the CAGE method. FIG. 27 is a graph showing the expression levels of the PPARγ genes. In FIG. 27, the horizontal axis represents the incubation time, and the vertical axis represents the expression amount (TPM) of the PPARγ gene. […] In contrast, in Comparative Example 8-2A, the expression level of the PPARγ gene decreased slightly from 3.97 TPM to 3.89 TPM during 3 hours, and in Comparative Example 8-2B, the expression level of the PPARγ gene increased from 3.97 TPM to 4.31 TPM during 3 hours, but the degree of the increase was not significant.

CCCCCC/C=C/CCCCCC(=O)OC(CCCCCCCCCCC)CC(=O)NC1C(OCC2OC(OP(=O)(O)O)C(NC(=O)CC(=O)CCCCCCCCCCC)C(OC(=O)CC(O)CCCCCCC)C2O)OC(COC2(C(=O)O)CC(OC3(C(=O)O)CC(OC4OC(C(=O)O)C(OC5OC(CO)C(O)C(O)C5O)C(O)C4O)C(O)C(C(O)CO)O3)C(OC3OC(CO)C(O)C(O)C3O)C(C(O)CO)O2)C(OP(=O)(O)O)C1OC(=O)CC(O)CCCCCCC (stereo not drawn) [Formula (A2)]
Equivalent results were obtained: TNF-α concentration in culture supernatant (TNF-α) | amount of NF-κB in the nucleoprotein (absorbance) (NF-κB) | effect on expression of the PPARγ gene (in words) (PPARγ gene)

CCCCCC/C=C/CCCCCC(=O)OC(CCCCCCCCCCC)CC(=O)NC1C(OCC2OC(OP(=O)(O)O)C(NC(=O)CC(=O)CCCCCCCCCCC)C(OC(=O)CC(O)CCCCCCC)C2O)OC(COC2(C(=O)O)CC(OC3(C(=O)O)CC(OC4OC(C(=O)O)C(OC5OC(CO)C(O)C(O)C5O)C(O)C4O)C(O)C(C(O)CO)O3)C(OC3OC(COP(=O)(O)O)C(OC4OC(CO)C(O)C(O)C4O)C(O)C3O)C(C(O)CO)O2)C(OP(=O)(O)O)C1OC(=O)CC(O)CCCCCCC (stereo not drawn) [Formula (A1)]
Equivalent results were obtained: TNF-α concentration in culture supernatant (TNF-α) | amount of NF-κB in the nucleoprotein (absorbance) (NF-κB) | effect on expression of the PPARγ gene (in words) (PPARγ gene)

CCCCCC/C=C/CCCCCC(=O)OC(CCCCCCCCCCC)CC(=O)NC1C(OCC2OC(OP(=O)(O)O)C(NC(=O)CC(=O)CCCCCCCCCCC)C(OC(=O)CC(O)CCCCCCC)C2O)OC(COC2(C(=O)O)CC(OC3(C(=O)O)CC(O)C(OC4OC(C(=O)O)C(OC5OC(CO)C(O)C(O)C5O)C(O)C4O)C(C(O)CO)O3)C(OC3OC(CO)C(O)C(O)C3O)C(C(O)CO)O2)C(OP(=O)(O)O)C1OC(=O)CC(O)CCCCCCC (stereo not drawn) [Formula (B2)]
Equivalent results were obtained: TNF-α concentration in culture supernatant (TNF-α) | amount of NF-κB in the nucleoprotein (absorbance) (NF-κB) | effect on expression of the PPARγ gene (in words) (PPARγ gene)

CCCCCC/C=C/CCCCCC(=O)OC(CCCCCCCCCCC)CC(=O)NC1C(OCC2OC(OP(=O)(O)O)C(NC(=O)CC(=O)CCCCCCCCCCC)C(OC(=O)CC(O)CCCCCCC)C2O)OC(COC2(C(=O)O)CC(OC3(C(=O)O)CC(O)C(OC4OC(C(=O)O)C(OC5OC(CO)C(O)C(O)C5O)C(O)C4O)C(C(O)CO)O3)C(OC3OC(COP(=O)(O)O)C(OC4OC(CO)C(O)C(O)C4O)C(O)C3O)C(C(O)CO)O2)C(OP(=O)(O)O)C1OC(=O)CC(O)CCCCCCC (stereo not drawn) [Formula (B1)]
Equivalent results were obtained: TNF-α concentration in culture supernatant (TNF-α) | amount of NF-κB in the nucleoprotein (absorbance) (NF-κB) | effect on expression of the PPARγ gene (in words) (PPARγ gene)
